Data from ChEMBL document CHEMBL3390836, “Mannich- and LedererManasse-based analogues of the natural product S-(+)-curcuphenol as cancer proliferation and migration inhibitors” (Medchemcomm, 2012).

Tests used:
[1] = test system: MDA-MB-231; assay: Cytotoxicity against human MDA-MB-231 cells assessed as growth inhibition after 24 hrs by MTT assay; assay type: cell-based; settings: MDA-MB-231, 24 h
[2] = test system: MCF7; assay: Growth inhibition of human MCF7 cells after 72 hrs by MTT assay; assay type: functional, cell-based; settings: MCF7, 72 h
[3] = test system: MDA-MB-231; assay: Antimigratory activity against human MDA-MB-231 cells after 24 hrs by wound-healing assay; assay type: functional, cell-based; settings: MDA-MB-231, 24 h
[4] = test system: MDA-MB-231; assay: Growth inhibition of human MDA-MB-231 cells after 72 hrs by MTT assay; assay type: functional, cell-based; settings: MDA-MB-231, 72 h

With CCOC(CCN1COc2c([C@@H](C)CCC=C(C)C)ccc(C)c2C1)OCC the IC50 [1] was > 20 µM, the IC50 [2] was 13.2 µM and the IC50 [3] was 3.1 µM. The IC50 [4] was 11.3 µM.
CCOC(CCNCc1c(C)ccc([C@@H](C)CCC=C(C)C)c1O)OCC was tested, and the IC50 [1] was > 20 µM, the IC50 [2] was 10.3 µM and the IC50 [3] was > 20 µM. For the same molecule, the IC50 [4] was 14.9 µM.
